Data taken from ChEMBL document CHEMBL1201862, “PubChem BioAssay data set” (2004).
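Briefly, cells in 96-well plates were exposed to five compound concentrations for 48 h, and endpoints were estimated by linear interpolation. GI50 marks 50% less growth.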 Active and inactive are the calls of the source. Cut-off read from the data, not from the text of the source: active = GI50 up to about 1.1 µM and inactive = higher.

Legend:
Test in all cases: NCI anticancer screen, dose series, 48 h
[1] = system: NCI-H226
[2] = system: Hs-578T
[3] = system: SN12C
[4] = system: DU-145
[5] = system: 786-0
[6] = system: UACC-257
[7] = system: OVCAR-4
[8] = system: MOLT-4
[9] = system: RPMI-8226
[10] = system: HCT-116
[11] = system: OVCAR-5
[12] = system: UO-31
[13] = system: Malme-3M
[14] = system: SF-539
[15] = system: LOX IMVI
[16] = system: MDA-N
[17] = system: CCRF-CEM
[18] = system: NCI-H522
[19] = system: SF-295
[20] = system: MCF7

Compound	GI50 [1]	GI50 [2]	GI50 [3]	GI50 [4]	GI50 [5]	GI50 [6]	GI50 [7]	GI50 [8]	GI50 [9]	GI50 [10]	GI50 [11]	GI50 [12]	GI50 [13]	GI50 [14]	GI50 [15]	GI50 [16]	GI50 [17]	GI50 [18]	GI50 [19]	GI50 [20]
CCOC(=O)CC(=O)C(=O)NN=C1NCCN1	> 100 µM (inactive)	> 100 µM (inactive)	> 100 µM (inactive)	> 100 µM (inactive)	> 100 µM (inactive)	> 100 µM (inactive)	> 100 µM (inactive)	> 100 µM (inactive)	> 100 µM (inactive)	> 100 µM (inactive)	> 100 µM (inactive)	> 100 µM (inactive)	> 100 µM (inactive)	> 100 µM (inactive)	> 100 µM (inactive)	> 100 µM (inactive)	> 100 µM (inactive)	> 100 µM (inactive)	> 100 µM (inactive)	> 100 µM (inactive)
O=C(ON=C1c2ccccc2C(Br)C(Br)c2ccccc21)c1cc([N+](=O)[O-])cc([N+](=O)[O-])c1 (stereo not given)	24.9 µM (inactive)	23 µM (inactive)	18.5 µM (inactive)	25.9 µM (inactive)	14.9 µM (inactive)	18 µM (inactive)	22.2 µM (inactive)	7.45 µM (inactive)	6.81 µM (inactive)	18.5 µM (inactive)	22.4 µM (inactive)		18.5 µM (inactive)	18 µM (inactive)	13.9 µM (inactive)	22.1 µM (inactive)	0.787 µM (active)	5.3 µM (inactive)	35 µM (inactive)	24.7 µM (inactive)
c1ccc2c(c1)ccn2CCc1c[nH]c2ccccc12	8.07 µM (inactive)	> 10 µM (inactive)	> 10 µM (inactive)	> 10 µM (inactive)	> 10 µM (inactive)	> 10 µM (inactive)	> 10 µM (inactive)	> 10 µM (inactive)	> 10 µM (inactive)	> 10 µM (inactive)	> 10 µM (inactive)	9.86 µM (inactive)	> 10 µM (inactive)	> 10 µM (inactive)	> 10 µM (inactive)	> 10 µM (inactive)	> 10 µM (inactive)	> 10 µM (inactive)	> 10 µM (inactive)	> 10 µM (inactive)
NC(=O)C1CCCN1Cc1ccc2c(c1)OCO2 (stereo not given)	> 100 µM (inactive)	> 100 µM (inactive)	> 100 µM (inactive)	> 100 µM (inactive)	> 100 µM (inactive)	> 100 µM (inactive)	> 100 µM (inactive)	> 100 µM (inactive)	> 100 µM (inactive)	> 100 µM (inactive)	> 100 µM (inactive)	> 100 µM (inactive)	> 100 µM (inactive)	> 100 µM (inactive)	> 100 µM (inactive)	> 100 µM (inactive)	> 100 µM (inactive)	> 100 µM (inactive)	> 100 µM (inactive)	> 100 µM (inactive)
CC(C)=CCN1CC(C)C(=O)Nc2cc(Cl)ccc21 (stereo not given)	15.7 µM (inactive)	36.5 µM (inactive)	15.9 µM (inactive)	30 µM (inactive)	19.2 µM (inactive)	13.3 µM (inactive)	25.6 µM (inactive)	> 100 µM (inactive)	28.8 µM (inactive)	16.2 µM (inactive)	34 µM (inactive)	28.6 µM (inactive)	25.1 µM (inactive)	23.5 µM (inactive)	16.2 µM (inactive)	26 µM (inactive)	29.4 µM (inactive)	17.3 µM (inactive)	27.1 µM (inactive)	18.7 µM (inactive)
C[C@@H](CC(O)C(O)C(C)(C)O)C1CCC23CC12CCC1[C@@]2(C)CCC(=O)C(C)(C)C2CC(OC2OC(CO)C(O)C(O)C2O)[C@]13C (stereo not given in full)	> 10 µM (inactive)	> 10 µM (inactive)	> 10 µM (inactive)	> 10 µM (inactive)	> 10 µM (inactive)		> 10 µM (inactive)	> 10 µM (inactive)	> 10 µM (inactive)	> 10 µM (inactive)	> 10 µM (inactive)	> 10 µM (inactive)	> 10 µM (inactive)	> 10 µM (inactive)	> 10 µM (inactive)	> 10 µM (inactive)	> 10 µM (inactive)	> 10 µM (inactive)	> 10 µM (inactive)	> 10 µM (inactive)
CC(=O)c1c(SCCN2CCCC2)n(-c2ccccc2)c(=S)n(-c2ccccc2)c1=O	20.9 µM (inactive)	17.6 µM (inactive)	7.16 µM (inactive)	2.75 µM (inactive)	1.6 µM (inactive)	3.46 µM (inactive)	29 µM (inactive)	2.41 µM (inactive)	1.51 µM (inactive)	6.73 µM (inactive)	33.7 µM (inactive)	1.4 µM (inactive)	3.85 µM (inactive)	6.12 µM (inactive)	2.49 µM (inactive)	7.03 µM (inactive)	1.7 µM (inactive)	2.48 µM (inactive)	> 76 µM (inactive)	1.33 µM (inactive)
O=C(O)c1ccccc1/C=N\N=C1NCCN1	21.6 µM (inactive)	> 100 µM (inactive)	> 100 µM (inactive)	> 100 µM (inactive)	> 100 µM (inactive)	> 100 µM (inactive)	> 100 µM (inactive)	> 100 µM (inactive)	> 100 µM (inactive)	> 100 µM (inactive)	> 100 µM (inactive)	40.9 µM (inactive)	> 100 µM (inactive)	> 100 µM (inactive)	> 100 µM (inactive)	> 100 µM (inactive)	> 100 µM (inactive)	> 100 µM (inactive)	> 100 µM (inactive)	> 100 µM (inactive)
Cc1ccc2c(c1)C(=O)c1[nH]c3ccc(F)cc3c1CO2	31.8 µM (inactive)	17.6 µM (inactive)	> 100 µM (inactive)	> 100 µM (inactive)	12.1 µM (inactive)	> 100 µM (inactive)	15.3 µM (inactive)	58.2 µM (inactive)	39.9 µM (inactive)	17.8 µM (inactive)	> 100 µM (inactive)	> 100 µM (inactive)	26.3 µM (inactive)	13.9 µM (inactive)	21.5 µM (inactive)	> 100 µM (inactive)	> 100 µM (inactive)	36.6 µM (inactive)	11.4 µM (inactive)	> 100 µM (inactive)
C/C=C/C(CC(O)(C(F)(F)F)C(F)(F)F)=N/NC(N)=S	> 10 µM (inactive)	> 10 µM (inactive)	> 10 µM (inactive)	> 10 µM (inactive)	> 10 µM (inactive)	> 10 µM (inactive)	> 10 µM (inactive)	> 10 µM (inactive)	> 10 µM (inactive)	> 10 µM (inactive)	> 10 µM (inactive)		> 10 µM (inactive)	> 10 µM (inactive)	> 10 µM (inactive)	> 10 µM (inactive)	> 10 µM (inactive)	> 10 µM (inactive)	> 10 µM (inactive)	> 10 µM (inactive)
Nc1ncc(Cl)c(NCC2(CO)CC(CCc3ccccc3)C2)n1 (stereo not given)	> 100 µM (inactive)	> 100 µM (inactive)	> 100 µM (inactive)	> 100 µM (inactive)	> 100 µM (inactive)	> 100 µM (inactive)	> 100 µM (inactive)	1.82 µM (inactive)	2.79 µM (inactive)	3.7 µM (inactive)	> 100 µM (inactive)	> 100 µM (inactive)	> 100 µM (inactive)	> 100 µM (inactive)	0.785 µM (active)	> 100 µM (inactive)	> 67.8 µM (inactive)	> 76.2 µM (inactive)	5.2 µM (inactive)	0.438 µM (active)
CCCC(=O)Nc1cc([N+](=O)[O-])c([N+](=O)[O-])cc1OC	23.1 µM (inactive)	14.4 µM (inactive)	15.6 µM (inactive)	17.8 µM (inactive)	26.3 µM (inactive)	18.3 µM (inactive)	15.4 µM (inactive)	> 10 µM (inactive)	19.8 µM (inactive)	17.1 µM (inactive)	32.5 µM (inactive)	1.75 µM (inactive)		20 µM (inactive)	2.79 µM (inactive)	15.1 µM (inactive)	14.1 µM (inactive)	12.9 µM (inactive)	10.1 µM (inactive)	29.5 µM (inactive)
CN(N)C(=O)NCCCl	0.23 µM (active)	> 100 µM (inactive)	> 100 µM (inactive)	> 100 µM (inactive)	> 100 µM (inactive)	> 100 µM (inactive)	> 100 µM (inactive)	> 100 µM (inactive)	> 100 µM (inactive)	> 100 µM (inactive)	> 100 µM (inactive)	> 100 µM (inactive)	> 100 µM (inactive)	> 100 µM (inactive)	> 100 µM (inactive)	> 100 µM (inactive)	> 100 µM (inactive)	> 100 µM (inactive)	> 100 µM (inactive)	> 100 µM (inactive)
O=c1c2cc(S(=O)(=O)O)ccc2nc(COc2ccc(Oc3ccc(Cl)cc3Cl)cc2)n1C(=S)Nc1ccc(Cl)cc1	18.2 µM (inactive)	20.6 µM (inactive)	18.8 µM (inactive)	27.7 µM (inactive)	19.2 µM (inactive)	25.4 µM (inactive)	23.9 µM (inactive)		26.9 µM (inactive)	22.5 µM (inactive)	19.8 µM (inactive)	15.8 µM (inactive)	21.6 µM (inactive)	16.8 µM (inactive)	16.6 µM (inactive)	22.1 µM (inactive)	34.7 µM (inactive)	17.6 µM (inactive)	19.9 µM (inactive)	20 µM (inactive)
